Our source for the GI50 and TGI values is PubChem BioAssay (NCI).

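Tested at 5 concentrations; 48 h exposure; 96-well plates; endpoints linearly interpolated, else capped at highest concentration. GI50 = concentration required for 50% inhibition of growth. The concentration for full growth arrest is given as TGI.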

Among the test systems are NCI-H23 lung; SF-295 CNS; MALME-3M melanoma; MDA-MB-231 breast; EKVX NSCLC; MOLT-4 leukemia; HCT-116 colon; SNB-75 CNS; HL-60(TB) leukemia; OVCAR-3 ovarian.
Common to all, as to assay: inhibition of tumour cell growth, NCI panel, 48 h

As for `Cc1cc(Cl)ccc1NC(=O)c1cc2ccccc2cc1O`, the GI50 was 0.295 µM with NCI-H23 lung; 2.56 µM with SF-295 CNS; 0.342 µM in the assay with MALME-3M melanoma; 1.01 µM with MDA-MB-231 breast; 2.61 µM with EKVX NSCLC; 0.651 µM in the assay with MOLT-4 leukemia. The GI50 in the assay with HCT-116 colon is 0.405 µM; in the assay with SNB-75 CNS, 7.14 µM; in the assay with HL-60(TB) leukemia, 0.435 µM; with OVCAR-3 ovarian, 0.369 µM. Besides, the TGI in the assay on NCI-H23 lung is over 100 µM; in the assay on SF-295 CNS it was over 28.6 µM; in the assay on MALME-3M melanoma it was over 100 µM; with MDA-MB-231 breast, 25.5 µM; in the assay on EKVX NSCLC, over 100 µM; in the assay with MOLT-4 leukemia, over 36.2 µM. Further, the TGI in the assay with HCT-116 colon is over 100 µM; with SNB-75 CNS, over 100 µM; in the assay with HL-60(TB) leukemia, 3.47 µM; with OVCAR-3 ovarian it was over 34.9 µM.

Regarding `NC(=O)c1cc(-c2ccc(F)cc2)cc(-c2ccncc2)c1N`, the GI50 is over 25 µM in the assay on NCI-H23 lung; over 21.7 µM in the assay with SF-295 CNS; over 25 µM in the assay on MALME-3M melanoma; over 25 µM with MDA-MB-231 breast; over 25 µM with EKVX NSCLC; over 25 µM with MOLT-4 leukemia. Further, the GI50 is over 25 µM in the assay on HCT-116 colon, 4.99 µM in the assay on SNB-75 CNS, over 25 µM in the assay on HL-60(TB) leukemia and over 25 µM with OVCAR-3 ovarian. Moreover, the TGI in the assay with NCI-H23 lung, in the assay with SF-295 CNS, with MALME-3M melanoma, in the assay on MDA-MB-231 breast, in the assay with EKVX NSCLC and with MOLT-4 leukemia was over 25 µM each time. Also, the TGI with HCT-116 colon, in the assay on SNB-75 CNS, in the assay with HL-60(TB) leukemia and in the assay on OVCAR-3 ovarian was over 25 µM in each case.

In the case of `CC(=O)O[C@]1(C(C)=O)CC[C@H]2[C@@H]3C=C(C)C4=CC(=O)CC[C@]4(C)[C@H]3CC[C@@]21C`, the GI50 in the assay on NCI-H23 lung was over 100 µM; in the assay on SF-295 CNS it was over 83.3 µM; in the assay on MALME-3M melanoma, over 74 µM; in the assay on MDA-MB-231 breast, over 100 µM; in the assay with EKVX NSCLC, 21 µM; in the assay on MOLT-4 leukemia, 43.2 µM. Besides, the GI50 was 28 µM in the assay with HCT-116 colon, over 59.8 µM with SNB-75 CNS, 12.8 µM in the assay with HL-60(TB) leukemia and over 100 µM with OVCAR-3 ovarian. Besides, the TGI in the assay on NCI-H23 lung, in the assay with SF-295 CNS, in the assay with MALME-3M melanoma, with MDA-MB-231 breast, in the assay with EKVX NSCLC and in the assay with MOLT-4 leukemia was over 100 µM throughout. In addition, the TGI is over 100 µM with HCT-116 colon, over 100 µM in the assay with SNB-75 CNS, 61.6 µM in the assay with HL-60(TB) leukemia and over 100 µM in the assay on OVCAR-3 ovarian.

With `COC(=O)C1=C(C)NC(C)=C(C(=O)OC)C1/C=C(Cl)/C=C/c1ccccc1`, the GI50 with NCI-H23 lung is 21.3 µM; in the assay on SF-295 CNS, 17.3 µM; in the assay with MALME-3M melanoma, 19.8 µM; with MDA-MB-231 breast, 17.9 µM; in the assay on EKVX NSCLC, 23.5 µM; with MOLT-4 leukemia, 18.4 µM. The GI50 in the assay on HCT-116 colon was 17.2 µM; in the assay with SNB-75 CNS, 20 µM; in the assay on HL-60(TB) leukemia, 17.8 µM; in the assay with OVCAR-3 ovarian, 15.3 µM. Moreover, the TGI amounted to 41.6 µM in the assay with NCI-H23 lung; 38.6 µM in the assay with SF-295 CNS; 46 µM in the assay with MALME-3M melanoma; 36.7 µM with MDA-MB-231 breast; 96.4 µM in the assay with EKVX NSCLC; 41 µM in the assay on MOLT-4 leukemia. In addition, the TGI with HCT-116 colon was found to be 30.9 µM; in the assay with SNB-75 CNS it was 54.8 µM; in the assay on HL-60(TB) leukemia it was 41.2 µM; with OVCAR-3 ovarian, 31.9 µM.
